# Assay results as given in paper PMC3849192, “A Simple Method for Assessing Free Brain/Free Plasma Ratios Using an In Vitro Model of the Blood Brain Barrier” (PLoS ONE, 2013).
# Columns and labels:
# [1] = tested on: in vitro BBB model (co-culture of bovine brain capillary endothelial cells and rat glial cells); test: In vitro BBB co-culture model, Cu,br/Cu,pl ratio; conditions: for In vitro Cu,br/Cu,pl Mean 1 h: 2 µM in luminal compartment, abluminal/luminal concentration at 1 h; for In vitro Cu,br/Cu,pl Mean steady-state: steady-state ratio computed from 1 h data with the blue-norna steady-state calculator
# Description: Figure 1 Schematic diagram of the experimental protocol. After 12 days of coculture in cell culture medium, both compartments of the in vitro BBB model consisting of a coculture of brain capillary endothlial cells and rat primary glial cells were filled with Hepes-buffered Ringer’s solution and the compounds dissolved at 2 µM were added in the luminal compartment (i.e donor). The presence of glial cells in the abluminal compartment was used to reproduce the non specific binding to brain tisssue within the brain prenchyma in vivo. After 1 hour, aliquots were taken from both compartments. In vitro Cu,br/Cu,pl at 1 h were calculated by dividing the concentration in the abluminal compartment (∼Cu,br) by the concentration in the luminal compartment (∼Cu,pl) at 1 h. The experimental data at 1 h were computed using the blue-norna steady-state calculator to generate the in vitro steady-state Cu,br/Cu,pl.
# One hour after the addition of compounds dissolved at 2 µM in the luminal (i.e upper) compartment, aliquots were taken from both compartments previously filled with Hepes-buffered Ringer’s solution at the beginning of the experiment. […] The concentrations in both compartments of the in vitro assay after 1 h were computed using […] blue-norna.com to generate the in vitro steady-state Cu,br/Cu,pl.
# The method of Dehouck et al. was used with minor modifications (Fig. 1). Bovine brain endothelial cells isolated from capillary fragments were cocultured with primary mixed glial cells from newborn Sprague–Dawley rats. The glial cells were isolated according to the method of Booher and Sensenbrenner and cultured for 3 weeks, plated on the bottom of cell culture clusters containing six wells each. The endothelial cells were seeded onto collagen-coated polycarbonate cell culture inserts (4.7 cm^2) (Corning Incorp. NY, USA), which were placed in the wells containing glial cells. The medium used for the coculture was Dulbecco’s modified Eagle’s medium supplemented with 10% calf serum, 10% horse serum, 2 mmol/L glutamine, 50 mg/L gentamicin and 1 µg/L basic fibroblast growth factor (Sigma). The medium was changed every second day. Experiments were usually initiated after 12 days of co-culture.
# To monitor the integrity of the endothelial cell monolayer, the marker molecule [^14C] sucrose was added to the solution at a concentration of 0.05 µCi/ml. At the start of the transport experiments, buffered Ringer’s solution (pH = 7.4) was added to wells with glial cells. Inserts with brain endothelial cells were placed in these wells and drug solutions at 2 µM were added to the donor compartment. The plates were incubated for 1 h in a polymix shaker at 37°C with a low shaking velocity. Aliquots were taken from the donor compartment in the beginning and at the end of the experiments. The receiver compartments were sampled at the end of the experiments.
# The amount of radiotracer in the abluminal compartment was measured in a liquid scintillation analyser (Packard Instrument Company, Meriden, USA). […] The concentrations of the test compound in all samples were analysed by MS/MS.
# The mean free brain/plasma ratios were calculated from three individual experiments. One hour ratios were calculated by dividing the drug concentration in the receiver compartment by the free drug concentration in the donor compartment after 1 h. The experimental data at one hour (i.e concentration in both compartment at the beginning of the experiment and after 1 h) were computed using the blue-norna® steady-state calculator (www.blue-norna.com) to predict the in vivo steady-state Cu,br/Cu,pl ratios. For further details on this calculation method see file S1.
# The in vivo steady-state Cu,br/Cu,pl were predicted from the in vitro experimental data collected after one hour according to the following equation: […]
# Cdonor, t and Creceiver, t are the concentration of drug in the donor and receiver chambers at time t.
# [2] = Fraction unbound brain (fu,br), brain slice method; conditions: rat brain slices 300 µm, 1 µM, 5 h incubation
# Description: Rats (male Sprague-Dawley) were decapitated under isoflurane anesthesia and the brains were removed carefully and immersed in ice-cold oxygenated physiological buffer at pH7.4. A 6 mm coronal section was cut with a razor and mounted with cyanoacrylate glue onto the tray of the microslicer (DTK-Zero 1 Microslicer, Dosak) after which six to eight 300 µm coronal slices from striatal areas were prepared. […] The compounds were dissolved at 1 µM in the buffer and the solution was incubated with the slice for 5 h.
# After 5 h, the brain slices were weighed and homogenized in 9 volumes (w/v) of ECF buffer with a sonicator (SONICS VCX 500 and VCX 130). The slice homogenates in ECF buffer were stored at −20°C prior to analysis. The concentrations of the test compound in the brain slice homogenate and in the ECF buffer was determined by LC-MS/MS.
# The unbound volume of distribution Vu,brain, or free fraction fu,brain was calculated according to the following equations: [drawing 1] [drawing 2] where Cslice, CECF and V0 are amount of drug in the slice, the drug concentration in the ECF (representing the drug concentration in the brain ECF, i.e. the free concentration), and the water adhesion of the brain slice. V0 has been estimated using ^14C -inulin in a separate experiment in which brain slices were incubated for 1, 2, and 4 min. V0 was obtained from brain slice uptake – inulin time profile (apparent zero-time intercept).
compound,measurement,setting,value
CN1CCN(C2=Nc3cc(Cl)ccc3Nc3ccccc32)CC1 [Clozapine],"In vitro Cu,br/Cu,pl Mean 1 h",[1],0.10
same,"In vitro Cu,br/Cu,pl Mean 1 h",[1]; listed as clozapine,0.103
same,"In vitro Cu,br/Cu,pl Mean steady-state",[1],0.71
same,"In vitro Cu,br/Cu,pl Mean steady-state",[1]; listed as clozapine,0.713
same,fubrain (slice) Mean,[2],0.0100
